Among the data in PMC2099433, “The binding site for neohesperidin dihydrochalcone at the human sweet taste receptor” (BMC Structural Biology, 2007) are EC50 and Emax values, retold here.

Assay [1] concerns the target T1, hTAS1R2 + hTAS1R3 S620A^2.57 (Homo sapiens, UniProt Q7RTX0+Q8TE23, S620A).
T1 construct: expressed in transfected cells; host or cells: HEK293T cells stably expressing G16Gust44
T1 sequence (Q8TE23 20-839): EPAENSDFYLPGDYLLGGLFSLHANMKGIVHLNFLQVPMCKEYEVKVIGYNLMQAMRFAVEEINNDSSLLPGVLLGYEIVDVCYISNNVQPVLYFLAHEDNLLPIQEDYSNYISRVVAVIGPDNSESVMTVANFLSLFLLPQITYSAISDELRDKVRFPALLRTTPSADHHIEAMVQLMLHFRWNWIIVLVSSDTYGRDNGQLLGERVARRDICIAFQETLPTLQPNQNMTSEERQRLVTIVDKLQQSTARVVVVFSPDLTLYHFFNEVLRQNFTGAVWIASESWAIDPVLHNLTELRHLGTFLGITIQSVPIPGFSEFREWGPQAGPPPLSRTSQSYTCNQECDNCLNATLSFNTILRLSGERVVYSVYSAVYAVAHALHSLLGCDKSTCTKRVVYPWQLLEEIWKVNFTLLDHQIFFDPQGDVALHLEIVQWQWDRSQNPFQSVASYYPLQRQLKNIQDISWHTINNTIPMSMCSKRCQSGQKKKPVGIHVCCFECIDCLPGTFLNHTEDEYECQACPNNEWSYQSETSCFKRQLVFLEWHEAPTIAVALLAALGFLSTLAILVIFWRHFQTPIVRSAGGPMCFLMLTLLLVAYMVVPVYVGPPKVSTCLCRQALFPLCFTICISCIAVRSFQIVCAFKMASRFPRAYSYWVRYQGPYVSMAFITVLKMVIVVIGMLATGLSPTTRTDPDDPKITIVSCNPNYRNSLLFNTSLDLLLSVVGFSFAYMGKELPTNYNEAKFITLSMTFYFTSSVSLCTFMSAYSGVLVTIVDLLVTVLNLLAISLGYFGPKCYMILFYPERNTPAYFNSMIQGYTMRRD
T1 sequence (Q7RTX0 21-852 S620A): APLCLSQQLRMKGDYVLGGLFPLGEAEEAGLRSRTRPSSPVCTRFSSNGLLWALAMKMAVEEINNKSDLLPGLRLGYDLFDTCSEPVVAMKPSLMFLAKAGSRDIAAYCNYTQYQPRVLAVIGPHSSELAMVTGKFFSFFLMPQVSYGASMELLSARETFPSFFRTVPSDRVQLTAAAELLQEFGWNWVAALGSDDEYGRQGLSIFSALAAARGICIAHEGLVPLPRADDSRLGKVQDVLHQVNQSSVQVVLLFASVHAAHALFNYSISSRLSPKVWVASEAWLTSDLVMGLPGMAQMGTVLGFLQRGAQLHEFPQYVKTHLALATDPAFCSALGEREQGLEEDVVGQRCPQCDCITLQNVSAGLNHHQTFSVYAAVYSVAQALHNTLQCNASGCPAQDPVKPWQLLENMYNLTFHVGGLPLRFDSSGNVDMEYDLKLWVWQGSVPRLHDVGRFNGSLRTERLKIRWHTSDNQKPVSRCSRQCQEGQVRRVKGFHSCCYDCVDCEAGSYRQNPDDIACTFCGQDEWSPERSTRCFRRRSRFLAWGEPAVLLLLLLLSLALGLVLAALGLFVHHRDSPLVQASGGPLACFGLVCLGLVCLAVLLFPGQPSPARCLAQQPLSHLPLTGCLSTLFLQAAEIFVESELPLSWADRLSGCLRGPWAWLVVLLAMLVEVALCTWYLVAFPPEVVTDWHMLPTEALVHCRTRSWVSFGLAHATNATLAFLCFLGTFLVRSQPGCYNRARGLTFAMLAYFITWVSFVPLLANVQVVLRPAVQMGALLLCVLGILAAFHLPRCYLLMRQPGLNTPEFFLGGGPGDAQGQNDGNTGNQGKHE
The assay can be described thus: Calcium response (FLIPR), hTAS1R3 mutant coexpressed with hTAS1R2. Type of assay: cell-based. The conditions noted are these: variant S620A^2.57; for Emax: read-out: maximal signal (% of wt). Summed up: (§1)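 Read-out: FLIPR calcium signal as ΔF/F = (F-F0)/F0, corrected for mock-transfected cells. Cells were HEK293T stably carrying G16Gust44, transiently transfected with HSV-tagged receptor cDNAs and dye-loaded with Fluo4-AM 24 h post transfection.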

The target of assay [2] is T2, hTAS1R2 + hTAS1R3 T724L^5.37 (Homo sapiens, UniProt Q7RTX0+Q8TE23, T724L).
T2 construct: expressed in transfected cells; host or cells: HEK293T cells stably expressing G16Gust44
T2 sequence (Q7RTX0 21-852 T724L): T1 sequence (Q7RTX0 21-852 S620A) with A600S, T704L
T2 sequence (Q8TE23 20-839): T1 sequence (Q8TE23 20-839)
Described as above. The assay is classed as cell-based. The conditions noted are these: variant T724L^5.37; for Emax: read-out: maximal signal (% of wt). Summed up: as §1

Molecules are shown by their SMILES. Residue numbers refer to the chain shown, from its start. Where a SMILES comes first, the peptide text is derived from it.

With `COc1ccc(CCC(=O)c2c(O)cc(O[C@@H]3O[C@H](CO)[C@@H](O)[C@H](O)[C@H]3O[C@@H]3O[C@@H](C)[C@H](O)[C@@H](O)[C@H]3O)cc2O)cc1O` [NHDC, neohesperidin dihydrochalcone], in assay [1], the EC50 came to 1300 ± 500 µM and the Emax is 55 ± 80%. Besides, in assay [2], the EC50 was determined as 500 ± 300 µM and the Emax is 58 ± 60%.
Regarding `COC(=O)[C@H](Cc1ccccc1)NC(=O)[C@@H](N)CC(=O)O` [aspartame] (HELM PEPTIDE1{D.F.[CO[*:1]]}$$$$V2.0), the EC50 is 1200 ± 300 µM in assay [1] and 1500 ± 200 µM in assay [2]. Further, the values for the Emax in assay [1] and in assay [2] were 64 ± 4% and 69 ± 2%, respectively.

As usually defined, the EC50 is the concentration giving half of the maximal effect.
